Results reported in patent US20210171576A1, “METHODS FOR TREATING CANCER WITH ACYLDEPSIPEPTIDE ANALOGS” (priority 2018, published 2021).
Where a SMILES comes first, the peptide text is derived from it. Bridges are numbered along the chain shown (N, C = ends). [ ]: non-standard residue; d: D form. The star is where a group is joined. Octatrienoyl(2E,4E,6E) = C/C=C/C=C/C=C/C(=O)*; Phe(3,5-F2) = N[C@@H](Cc1cc(F)cc(F)c1)C(=O)O; Pip(4S-Me) = C[C@H]1CCN[C@H](C(=O)O)C1; 2Nal = N[C@@H](Cc1ccc2ccccc2c1)C(=O)O; Hexadienoyl(2E,4E) = C/C=C/C=C/C(=O)*; Pro(4R-Me) = C[C@H]1CN[C@H](C(=O)O)C1; Tiq1c(1S) = O=C(O)[C@H]1NCCc2ccccc21; X12 = O=C(/C=C/c1cccc(C(F)(F)F)c1)*; Heptenoyl(2E) = CCCC/C=C/C(=O)*; Cha = N[C@@H](CC1CCCCC1)C(=O)O; aThr = C[C@H](O)[C@H](N)C(=O)O; Pip = O=C(O)[C@@H]1CCCCN1; X2 = O=C(/C=C/CC1CCCCC1)*; NMeA = CN[C@@H](C)C(=O)O; Abu = CC[C@H](N)C(=O)O; Cbz = O=C(OCc1ccccc1)*; Dap = NC[C@H](N)C(=O)O; Boc = CC(C)(C)OC(=O)*; X4 = CCCCC/C=C/C(=O)*; X6 = CCCC/C=C\C(=O)*; X5 = CCCCCC#CC(=O)*; X7 = CCC/C=C\C(=O)*; X8 = CCC/C=C/C(=O)*

Biological target: T1, human mitochondrial CIpP (HsCIpP) (Homo sapiens, UniProt Q16740)
T1 construct: made in house; host or cells: E. coli SG1146 (BL21(DE3) ΔclpP::cat)
Assay: Screen of ADEP analogs against HsCIpP: relative degradation (RD) index, casein-FITC degradation relative to E. coli CIpAP
Format: biochemical
Set-up: key: casein-FITC degradation by HsClpP relative to EcClpAP
Conditions: for Hs RD1: RD value at 1 μM of the ADEP analog; for Hs RD5: RD value at 5 μM of the ADEP analog; for Hs RD25: RD value at 25 μM of the ADEP analog, measure of ability to activate HsCIpP
Description: Structural analogs of acyldepsipeptide (ADEP) (Goodreid et al., 2016) that were previously developed as potential antibiotics against bacterial CIpP were screened and assessed for their ability to activate and dysregulate the protease activity of HsCIpP, by measuring their relative degradation (RD) index. Note that ADEP-28 was also previously reported by Carney et al. (2014). Details of the experimental protocol have been described in Leung et al., 2011. The RD index is defined as follows: […]
Δφ is the change in fluorescence after 6 hr of starting the reaction measured using 485 nm excitation and 535 nm emission, which primarily detects the signal from casein-FITC. E. coli CIpAP was used as a benchmark for maximum CIpP proteolytic activity. The CIpP in the numerator can be from any other organism. RD25 measurements refer to the measurement in the presence of 25 μM compound. All ADEP analogs were first screened at 25 μM, and their RD25 scores were calculated using the above formula and method as described in Leung et al., 2011 (FIG. 1A). Those that achieved RD25≥0.87 were screened a second time at 5 μM, followed by calculation of their RD5 scores. The top analogs with RD5≥0.74 were screened a third time at 1 μM, followed by calculation of their RD1 scores (FIG. 1B).
To identify ADEP analogs that allow HsCIpP to degrade folded proteins independent of HsCIpX+ATP (i.e., that activate or dysregulate HsCIpP), the inventors employed the in vitro screening method that was used for identifying small molecule activators of Escherichia coli CIpP (EcCIpP) (Leung et al., 2011). In this approach, the ability of HsCIpP to degrade FITC-labeled casein (casein-FITC) was measured and compared to the ability of EcCIpAP to degrade casein-FITC. This is quantitatively expressed as relative degradation (RD) index (Leung et al., 2011).

T1 sequence (Q16740 57-277): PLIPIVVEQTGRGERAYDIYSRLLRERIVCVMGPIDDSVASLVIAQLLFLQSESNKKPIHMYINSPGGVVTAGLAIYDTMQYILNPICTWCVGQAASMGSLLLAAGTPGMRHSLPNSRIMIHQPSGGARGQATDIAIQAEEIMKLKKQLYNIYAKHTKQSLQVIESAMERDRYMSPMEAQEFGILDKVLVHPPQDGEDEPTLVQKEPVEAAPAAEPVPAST

Structure (SMILES) | Hs RD1 | Hs RD5 | Hs RD25
CCCC/C=C/C(=O)N[C@@H](Cc1cc(F)cc(F)c1)C(=O)N[C@H]1COC(=O)[C@@H]2C[C@@H](C)CN2C(=O)[C@H](C)NC(=O)[C@@H]2CCCN2C(=O)[C@@H]2CCCN2C1=O [ADEP-15] | 0.58 | 0.92 | 1.05
CCCC/C=C\C(=O)N[C@@H](Cc1ccccc1)C(=O)N[C@H]1COC(=O)[C@@H]2CCCN2C(=O)[C@H](C)NC(=O)[C@H](C)N(C)C(=O)[C@@H]2CCCN2C1=O [ADEP-19] (X6-FSP[NMeA]AP; ester 2-C) | – | – | 0.34
C[C@@H]1C[C@H]2C(=O)OC[C@H](NC(=O)[C@H](Cc3ccccc3)NC(=O)OC(C)(C)C)C(=O)N3CCC[C@H]3C(=O)N(C)[C@@H](C)C(=O)N[C@@H](C)C(=O)N2C1 [ADEP-35] (Boc-FSP[NMeA]A[Pro(4R-Me)]; ester 2-C) | – | – | 0.00
C/C=C/C=C/C=C/C(=O)N[C@@H](Cc1ccccc1)C(=O)N[C@H]1COC(=O)[C@@H]2CCCN2C(=O)[C@H](C)NC(=O)[C@H](C)N(C)C(=O)[C@@H]2CCCN2C1=O [ADEP-08] ({Octatrienoyl(2E,4E,6E)}-FSP[NMeA]AP; ester 2-C) | – | 0.52 | 0.97
CCCC/C=C/C(=O)N[C@@H](Cc1ccccc1)C(=O)N[C@H]1COC(=O)[C@@H]2C[C@@H](C)CN2C(=O)[C@H](C)NC(=O)[C@@H]2CCCCN2C(=O)[C@@H]2CCCN2C1=O [ADEP-10] | 0.44 | 0.85 | 1.07
CCC/C=C/C(=O)N[C@@H](Cc1ccccc1)C(=O)N[C@H]1COC(=O)[C@@H]2CCCN2C(=O)[C@H](C)NC(=O)[C@H](C)N(C)C(=O)[C@@H]2CCCN2C1=O [ADEP-09] (X8-FSP[NMeA]AP; ester 2-C) | – | – | 0.76
CCC/C=C\C(=O)N[C@@H](Cc1ccccc1)C(=O)N[C@H]1COC(=O)[C@@H]2CCCN2C(=O)[C@H](C)NC(=O)[C@H](C)N(C)C(=O)[C@@H]2CCCN2C1=O [ADEP-33] (X7-FSP[NMeA]AP; ester 2-C) | – | – | 0.07
CCCC/C=C/C(=O)N[C@@H](Cc1c(F)c(F)c(F)c(F)c1F)C(=O)N[C@H]1COC(=O)[C@@H]2C[C@@H](C)CN2C(=O)[C@H](C)NC(=O)[C@@H]2CCCCN2C(=O)[C@@H]2CCCN2C1=O [ADEP-45] | – | – | 0.29
C[C@@H]1NC(=O)[C@@H]2CCCCN2C(=O)[C@@H]2CCCN2C(=O)[C@@H](NC(=O)[C@H](Cc2ccccc2)NC(=O)c2ccc([N+](=O)[O-])cc2)COC(=O)[C@@H]2CCCN2C1=O [ADEP-24] | – | – | 0.00
CCCCCC#CC(=O)N[C@@H](Cc1ccccc1)C(=O)N[C@H]1COC(=O)[C@@H]2CCCN2C(=O)[C@H](C)NC(=O)[C@H](C)N(C)C(=O)[C@@H]2CCCN2C1=O [ADEP-27] (X5-FSP[NMeA]AP; ester 2-C) | – | – | 0.64
C[C@@H]1NC(=O)[C@H](C)N(C)C(=O)[C@@H]2CCCN2C(=O)[C@@H](NC(=O)[C@@H](N)Cc2ccccc2)COC(=O)[C@@H]2CCCN2C1=O [ADEP-40] (H-FSP[NMeA]AP; ester 2-C) | – | – | 0.00
C[C@@H]1C[C@H]2C(=O)O[C@@H](C)[C@H](NC(=O)[C@H](Cc3cc(F)cc(F)c3)NC(=O)/C=C/CC3CCCCC3)C(=O)N3CCC[C@H]3C(=O)N3CCCC[C@H]3C(=O)N[C@@H](C)C(=O)N2C1 [ADEP-17] (X2-[Phe(3,5-F2)][aThr]P[Pip]A[Pro(4R-Me)]; ester 2-C) | 0.86 | 0.91 | 1.02
CCCCC/C=C/C(=O)N[C@@H](Cc1ccccc1)C(=O)N[C@H]1COC(=O)[C@@H]2CCCN2C(=O)[C@H](C)NC(=O)[C@H](C)N(C)C(=O)[C@@H]2CCCN2C1=O [ADEP-18] (X4-FSP[NMeA]AP; ester 2-C) | – | 0.72 | 1.07
CCCC/C=C/C(=O)N[C@@H](Cc1cc(F)cc(F)c1)C(=O)N[C@@H]1C(=O)N2CCC[C@H]2C(=O)N2CC[C@H](C)C[C@H]2C(=O)N[C@@H](C)C(=O)N2C[C@H](C)C[C@H]2C(=O)O[C@H]1C [ADEP-38] ({Heptenoyl(2E)}-[Phe(3,5-F2)][aThr]P[Pip(4S-Me)]A[Pro(4R-Me)]; ester 2-C) | 0.76 | 0.89 | 0.95
CCCC/C=C/C(=O)N[C@@H](Cc1cc(F)cc(F)c1)C(=O)N[C@H]1CNC(=O)[C@@H]2C[C@@H](C)CN2C(=O)[C@H](C)NC(=O)[C@@H]2CCCCN2C(=O)[C@@H]2CCCN2C1=O [ADEP-32] ({Heptenoyl(2E)}-[Phe(3,5-F2)][Dap]P[Pip]A[Pro(4R-Me)]; lactam 2-C) | 0.79 | 0.96 | 1.03
C[C@@H]1NC(=O)[C@H](C)N(C)C(=O)[C@@H]2CCCN2C(=O)[C@@H](NC(=O)[C@H](Cc2ccccc2)NC(=O)OCc2ccccc2)COC(=O)[C@@H]2CCCN2C1=O [ADEP-22] (Cbz-FSP[NMeA]AP; ester 2-C) | – | – | 0.00
CCC/C=C/C(=O)N[C@@H](Cc1cccc(F)c1)C(=O)N[C@H]1COC(=O)[C@@H]2C[C@@H](C)CN2C(=O)[C@H](C)NC(=O)[C@@H]2CCCCN2C(=O)[C@@H]2CCCN2C1=O [ADEP-20] | 0.53 | 0.90 | 1.04
C/C=C/C=C/C=C/C(=O)N[C@@H](Cc1ccccc1)C(=O)N[C@H]1COC(=O)[C@@H]2C[C@@H](C)CN2C(=O)[C@H](C)NC(=O)[C@H](C)N(C)C(=O)[C@@H]2CCCN2C1=O [ADEP-05] ({Octatrienoyl(2E,4E,6E)}-FSP[NMeA]A[Pro(4R-Me)]; ester 2-C) | – | 0.69 | 0.98
CCCC/C=C/C(=O)N[C@@H](Cc1cc(F)cc(F)c1)C(=O)N[C@H]1COC(=O)[C@@H]2C[C@@H](C)CN2C(=O)[C@H](CC)NC(=O)[C@@H]2CCCCN2C(=O)[C@@H]2CCCN2C1=O [ADEP-25] ({Heptenoyl(2E)}-[Phe(3,5-F2)]SP[Pip][Abu][Pro(4R-Me)]; ester 2-C) | 0.61 | 0.92 | 0.97
CCCC/C=C/C(=O)N[C@@H](Cc1ccc2ccccc2c1)C(=O)N[C@H]1COC(=O)[C@@H]2C[C@@H](C)CN2C(=O)[C@H](C)NC(=O)[C@@H]2CCCCN2C(=O)[C@@H]2CCCN2C1=O [ADEP-43] ({Heptenoyl(2E)}-[2Nal]SP[Pip]A[Pro(4R-Me)]; ester 2-C) | – | 0.55 | 0.87
CCCC/C=C/C(=O)N[C@@H](Cc1ccccc1)C(=O)N[C@H]1COC(=O)[C@@H]2CCCN2C(=O)[C@H](C)NC(=O)[C@H](C)N(C)C(=O)[C@@H]2CCCN2C1=O [ADEP-01] ({Heptenoyl(2E)}-FSP[NMeA]AP; ester 2-C) | 0.22 | 0.70 | 0.96
C[C@@H]1C[C@H]2C(=O)OC[C@H](NC(=O)[C@H](Cc3ccccc3)NC(=O)OCc3ccccc3)C(=O)N3CCC[C@H]3C(=O)N(C)[C@@H](C)C(=O)N[C@@H](C)C(=O)N2C1 [ADEP-16] (Cbz-FSP[NMeA]A[Pro(4R-Me)]; ester 2-C) | – | – | 0.06
C/C=C/C=C/C(=O)N[C@@H](Cc1ccccc1)C(=O)N[C@H]1COC(=O)[C@@H]2C[C@@H](C)CN2C(=O)[C@H](C)NC(=O)[C@H](C)N(C)C(=O)[C@@H]2CCCN2C1=O [ADEP-03] ({Hexadienoyl(2E,4E)}-FSP[NMeA]A[Pro(4R-Me)]; ester 2-C) | – | – | 0.66
CCCC/C=C/C(=O)N[C@@H](Cc1cc(F)cc(F)c1)C(=O)N[C@H]1COC(=O)[C@@H]2C[C@@H](C)CN2C(=O)[C@H](C)NC(=O)[C@@H]2c3ccccc3CCN2C(=O)[C@@H]2CCCN2C1=O [ADEP-37] ({Heptenoyl(2E)}-[Phe(3,5-F2)]SP[Tiq1c(1S)]A[Pro(4R-Me)]; ester 2-C) | 0.68 | 0.86 | 0.92
C[C@@H]1NC(=O)[C@H](C)N(C)C(=O)[C@@H]2CCCN2C(=O)[C@@H](NC(=O)[C@H](Cc2ccccc2)NC(=O)OC(C)(C)C)COC(=O)[C@@H]2CCCN2C1=O [ADEP-34] (Boc-FSP[NMeA]AP; ester 2-C) | – | – | 0.00
C[C@@H]1C[C@H]2C(=O)O[C@@H](C)[C@H](NC(=O)[C@H](Cc3cc(F)cc(F)c3)NC(=O)/C=C/c3cccc(C(F)(F)F)c3)C(=O)N3CCC[C@H]3C(=O)N3CC[C@H](C)C[C@H]3C(=O)N[C@@H](C)C(=O)N2C1 [ADEP-39] (X12-[Phe(3,5-F2)][aThr]P[Pip(4S-Me)]A[Pro(4R-Me)]; ester 2-C) | – | – | 0.78
CCCC/C=C/C(=O)N[C@@H](CC1CCCCC1)C(=O)N[C@H]1COC(=O)[C@@H]2C[C@@H](C)CN2C(=O)[C@H](C)NC(=O)[C@@H]2CCCCN2C(=O)[C@@H]2CCCN2C1=O [ADEP-21] ({Heptenoyl(2E)}-[Cha]SP[Pip]A[Pro(4R-Me)]; ester 2-C) | – | 0.70 | 1.00
CCCC/C=C/C(=O)N[C@H](Cc1ccccc1)C(=O)N[C@H]1COC(=O)[C@@H]2CCCN2C(=O)[C@H](C)NC(=O)[C@@H]2CCCCN2C(=O)[C@@H]2CCCN2C1=O [ADEP-02] | 0.52 | 0.88 | 1.08
